In patent US9242987B2, “Heterocyclyl pyrazolopyrimidine analogues as JAK inhibitors” (Cellzome Limited, priority 2009, dated 2016):

Legend:
JAK2 = target: T1, JAK2 (Homo sapiens, UniProt O60674); experiment: Kinobeads assay, JAK2; assay type: binding; details: mixed Molt4/Ramos cell lysate, dot blot detection
T1 construct: endogenous in cells; host or cells: Mixed Molt4/Ramos lysate (1:2)
Method in brief: (§1)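 Lysate from Molt4 and Ramos cells combined 1:2 at 10 mg/mL total protein met test compound and an aminopyrido-pyrimidine affinity matrix for 3 h in the cold. Captured JAK2 and JAK3, after elution, were measured by specific-antibody dot blot on an infrared system; dose-response curves yielded IC50.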

JAK3 = target: T2, JAK3 (Homo sapiens, UniProt P52333); experiment: Kinobeads assay, JAK3; assay type: binding; details: mixed Molt4/Ramos cell lysate, dot blot detection
T2 construct: endogenous in cells; host or cells: Mixed Molt4/Ramos lysate (1:2)
T2 sequence (P52333 1-1124): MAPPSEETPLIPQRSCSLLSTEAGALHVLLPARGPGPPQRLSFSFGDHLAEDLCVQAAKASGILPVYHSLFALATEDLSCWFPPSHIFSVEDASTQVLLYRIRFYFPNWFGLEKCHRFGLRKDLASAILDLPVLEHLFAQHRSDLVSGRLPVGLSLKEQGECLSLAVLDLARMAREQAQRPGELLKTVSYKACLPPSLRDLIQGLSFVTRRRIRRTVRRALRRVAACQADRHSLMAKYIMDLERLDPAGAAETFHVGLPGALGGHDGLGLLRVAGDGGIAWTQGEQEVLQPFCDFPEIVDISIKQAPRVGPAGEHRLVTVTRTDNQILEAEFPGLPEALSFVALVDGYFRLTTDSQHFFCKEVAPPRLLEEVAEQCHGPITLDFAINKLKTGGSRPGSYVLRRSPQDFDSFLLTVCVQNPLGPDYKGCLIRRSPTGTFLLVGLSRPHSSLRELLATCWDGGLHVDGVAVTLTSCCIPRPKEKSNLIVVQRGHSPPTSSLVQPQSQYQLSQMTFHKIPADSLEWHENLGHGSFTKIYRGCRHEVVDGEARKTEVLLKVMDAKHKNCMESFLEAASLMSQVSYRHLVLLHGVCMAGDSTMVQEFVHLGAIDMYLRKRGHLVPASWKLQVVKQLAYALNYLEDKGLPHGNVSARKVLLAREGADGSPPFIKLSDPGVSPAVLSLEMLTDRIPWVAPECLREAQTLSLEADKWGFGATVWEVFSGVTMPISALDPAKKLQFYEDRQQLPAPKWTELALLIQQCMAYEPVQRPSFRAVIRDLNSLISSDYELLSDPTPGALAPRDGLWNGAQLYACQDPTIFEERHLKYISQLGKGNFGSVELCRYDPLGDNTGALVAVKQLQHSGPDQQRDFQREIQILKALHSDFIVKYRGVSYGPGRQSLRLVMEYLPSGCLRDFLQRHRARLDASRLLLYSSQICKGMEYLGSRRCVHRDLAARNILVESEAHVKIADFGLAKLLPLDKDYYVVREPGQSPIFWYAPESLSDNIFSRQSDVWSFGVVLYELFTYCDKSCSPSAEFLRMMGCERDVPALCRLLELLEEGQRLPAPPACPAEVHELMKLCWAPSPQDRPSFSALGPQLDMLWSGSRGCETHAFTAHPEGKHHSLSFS
Method in brief: as §1

T1 sequence (O60674 whole entry): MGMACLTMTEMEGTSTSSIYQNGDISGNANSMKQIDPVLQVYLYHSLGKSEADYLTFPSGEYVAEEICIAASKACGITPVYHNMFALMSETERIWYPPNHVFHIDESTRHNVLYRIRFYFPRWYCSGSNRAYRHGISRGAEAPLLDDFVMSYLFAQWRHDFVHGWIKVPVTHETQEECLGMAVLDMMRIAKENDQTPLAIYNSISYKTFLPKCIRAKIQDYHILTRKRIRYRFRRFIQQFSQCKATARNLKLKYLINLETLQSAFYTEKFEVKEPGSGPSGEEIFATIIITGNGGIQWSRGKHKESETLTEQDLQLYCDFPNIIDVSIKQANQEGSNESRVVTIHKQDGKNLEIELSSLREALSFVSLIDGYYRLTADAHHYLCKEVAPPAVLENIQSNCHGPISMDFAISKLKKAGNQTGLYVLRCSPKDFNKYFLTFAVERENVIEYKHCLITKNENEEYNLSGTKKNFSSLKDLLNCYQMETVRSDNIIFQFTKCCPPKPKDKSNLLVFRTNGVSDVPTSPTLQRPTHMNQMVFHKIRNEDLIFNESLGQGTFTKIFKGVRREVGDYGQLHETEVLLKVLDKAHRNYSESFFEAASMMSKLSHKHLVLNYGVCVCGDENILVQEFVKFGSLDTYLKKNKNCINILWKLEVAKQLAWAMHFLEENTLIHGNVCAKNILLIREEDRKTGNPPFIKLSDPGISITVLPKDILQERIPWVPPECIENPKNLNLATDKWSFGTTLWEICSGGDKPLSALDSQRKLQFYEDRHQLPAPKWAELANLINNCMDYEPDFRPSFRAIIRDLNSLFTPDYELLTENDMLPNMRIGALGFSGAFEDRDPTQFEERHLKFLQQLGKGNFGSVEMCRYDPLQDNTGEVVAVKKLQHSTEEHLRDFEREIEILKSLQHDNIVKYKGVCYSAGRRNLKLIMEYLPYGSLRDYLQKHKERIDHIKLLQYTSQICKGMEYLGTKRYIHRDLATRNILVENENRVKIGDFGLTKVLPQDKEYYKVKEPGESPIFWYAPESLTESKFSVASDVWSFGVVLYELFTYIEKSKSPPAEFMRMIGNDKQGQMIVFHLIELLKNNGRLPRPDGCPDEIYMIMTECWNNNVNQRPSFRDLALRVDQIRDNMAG

SMILES | IC50 (JAK2) | IC50 (JAK3)
Cn1cc(Nc2ncc3cnn(Cc4c(F)c(F)cc(F)c4F)c3n2)cn1 [Example 163, N-(1-Methyl-1H-pyrazol-4-yl)-1-(2,3,5,6-tetrafluorobenzyl)-1H-pyrazolo[3,4-d]pyrimidin-6-amine] | 100 to 1000 nM | < 100 nM
Cn1cc(Nc2ncc3cnn(Cc4cccc(OCCO)c4)c3n2)cn1 [Example 166, 2-(3-((6-((1-Methyl-1H-pyrazol-4-yl)amino)-1H-pyrazolo[3,4-d]pyrimidin-1-yl)methyl)phenoxy)ethanol] | 1000 to 10000 nM | < 100 nM
Cn1cc(Nc2ncc3cnn(Cc4cccc(OCCN5CCCCC5)c4)c3n2)cn1 [Example 167, N-(1-Methyl-1H-pyrazol-4-yl)-1-(3-(2-(piperidin-1-yl)ethoxy)benzyl)-1H-pyrazolo[3,4-d]pyrimidin-6-amine] | ≥ 10000 nM | < 100 nM
COCCCOc1cccc(Cn2ncc3cnc(Nc4cnn(C)c4)nc32)c1 [Example 169, 1-(3-(3-Methoxypropoxy)benzyl)-N-(1-methyl-1H-pyrazol-4-yl)-1H-pyrazolo[3,4-d]pyrimidin-6-amine] | ≥ 10000 nM | 100 to 1000 nM
CO[C@@H](C)COc1cccc(Cn2ncc3cnc(Nc4cnn(C)c4)nc32)c1 [Example 171, (S)-1-(3-(2-Methoxypropoxy)benzyl)-N-(1-methyl-1H-pyrazol-4-yl)-1H-pyrazolo[3,4-d]pyrimidin-6-amine] | ≥ 10000 nM | < 100 nM
Cn1cc(Nc2ncc3cnn(Cc4cccc(OCC5CC5)c4)c3n2)cn1 [Example 172, 1-(3-(Cyclopropylmethoxy)benzyl)-N-(1-methyl-1H-pyrazol-4-yl)-1H-pyrazolo[3,4-d]pyrimidin-6-amine] | ≥ 10000 nM | 100 to 1000 nM
C[C@@H]1CN(c2cccc(Cn3ncc4cnc(Nc5cnn(C)c5)nc43)c2)C[C@H](C)O1 [Example 175, 1-(3-((2S,6R)-2,6-Dimethylmorpholino)benzyl)-N-(1-methyl-1H-pyrazol-4-yl)-1H-pyrazolo[3,4-d]pyrimidin-6-amine] | ≥ 10000 nM | 100 to 1000 nM
Cn1cc(Nc2ncc3cnn(Cc4ccccc4N4CCOCC4)c3n2)cn1 [Example 180, N-(1-Methyl-1H-pyrazol-4-yl)-1-(2-morpholinobenzyl)-1H-pyrazolo[3,4-d]pyrimidin-6-amine] | 100 to 1000 nM | 100 to 1000 nM
Cn1cc(Nc2ncc3cnn(Cc4cccc(OC5CCOC5)c4)c3n2)cn1 (stereo not shown) [Example 181, N-(1-Methyl-1H-pyrazol-4-yl)-1-(3-((tetrahydrofuran-3-yl)oxy)benzyl)-1H-pyrazolo[3,4-d]pyrimidin-6-amine] | ≥ 10000 nM | < 100 nM
CN(C)c1cccc(Cn2ncc3cnc(Nc4cnn(C)c4)nc32)n1 [Example 183] | ≥ 10000 nM | 100 to 1000 nM
COCCOc1cccc(Cn2ncc3cnc(Nc4cnn(CCCN(C)C)c4)nc32)c1 [Example 184, N-(1-(3-(Dimethylamino)propyl)-1H-pyrazol-4-yl)-1-(3-(2-methoxyethoxy)benzyl)-1H-pyrazolo[3,4-d]pyrimidin-6-amine] | 1000 to 10000 nM | < 100 nM
Cn1cc(Nc2ncc3cnn(Cc4cccc(N[C@@H]5CCOC5)n4)c3n2)cn1 [Example 187, (R)—N-(1-Methyl-1H-pyrazol-4-yl)-1-((6-((tetrahydrofuran-3-yl)amino)pyridin-2-yl)methyl)-1H-pyrazolo[3,4-d]pyrimidin-6-amine] | ≥ 10000 nM | < 100 nM

Other lines, results leading:

IC50 (JAK2) | IC50 (JAK3) | SMILES
1000 to 10000 nM | 100 to 1000 nM | Fc1c(Cl)cccc1Cn1ncc2cnc(Nc3cnn(CC(F)F)c3)nc21 [Example 156, 1-(3-Chloro-2-fluorobenzyl)-N-(1-(2,2-difluoroethyl)-1H-pyrazol-4-yl)-1H-pyrazolo[3,4-d]pyrimidin-6-amine]
100 to 1000 nM | < 100 nM | Fc1ccc(F)c(Cn2ncc3cnc(Nc4cnn(CC(F)F)c4)nc32)c1F [Example 157, N-(1-(2,2-Difluoroethyl)-1H-pyrazol-4-yl)-1-(2,3,6-trifluorobenzyl)-1H-pyrazolo[3,4-d]pyrimidin-6-amine]
< 100 nM | < 100 nM | Cn1cc(Nc2ncc3cnn(Cc4cc(F)cc(F)c4F)c3n2)cn1 [Example 158, N-(1-Methyl-1H-pyrazol-4-yl)-1-(2,3,5-trifluorobenzyl)-1H-pyrazolo[3,4-d]pyrimidin-6-amine]
1000 to 10000 nM | < 100 nM | COc1ccc(F)c(Cn2ncc3cnc(Nc4cnn(C)c4)nc32)c1F [Example 159, 1-(2,6-Difluoro-3-methoxybenzyl)-N-(1-methyl-1H-pyrazol-4-yl)-1H-pyrazolo[3,4-d]pyrimidin-6-amine]
1000 to 10000 nM | < 100 nM | Fc1cccc(F)c1Cn1ncc2cnc(Nc3cnn(CC(F)F)c3)nc21 [Example 160, 1-(2,6-Difluorobenzyl)-N-(1-(2,2-difluoroethyl)-1H-pyrazol-4-yl)-1H-pyrazolo[3,4-d]pyrimidin-6-amine]
1000 to 10000 nM | 100 to 1000 nM | FC(F)Cn1cc(Nc2ncc3cnn(Cc4ccccc4C4CC4)c3n2)cn1 [Example 161, 1-(2-Cyclopropylbenzyl)-N-(1-(2,2-difluoroethyl)-1H-pyrazol-4-yl)-1H-pyrazolo[3,4-d]pyrimidin-6-amine]
1000 to 10000 nM | < 100 nM | Cn1cc(Nc2ncc3cnn(Cc4c(F)cccc4C(F)(F)F)c3n2)cn1 [Example 164, 1-(2-Fluoro-6-(trifluoromethyl)benzyl)-N-(1-methyl-1H-pyrazol-4-yl)-1H-pyrazolo[3,4-d]pyrimidin-6-amine]
1000 to 10000 nM | < 100 nM | Fc1ccccc1Cn1ncc2cnc(Nc3cnn(CCC4CCOCC4)c3)nc21 [Example 165, 1-(2-Fluorobenzyl)-N-(1-(2-(tetrahydro-2H-pyran-4-yl)ethyl)-1H-pyrazol-4-yl)-1H-pyrazolo[3,4-d]pyrimidin-6-amine]
1000 to 10000 nM | < 100 nM | Cn1cc(Nc2ncc3cnn(Cc4ccccc4OCCO)c3n2)cn1 [Example 168, 2-(2-((6-((1-Methyl-1H-pyrazol-4-yl)amino)-1H-pyrazolo[3,4-d]pyrimidin-1-yl)methyl)phenoxy)ethanol]
1000 to 10000 nM | < 100 nM | Cn1cc(Nc2ncc3cnn(Cc4cccc(F)n4)c3n2)cn1 [Example 170, 1-((6-Fluoropyridin-2-yl)methyl)-N-(1-methyl-1H-pyrazol-4-yl)-1H-pyrazolo[3,4-d]pyrimidin-6-amine]
1000 to 10000 nM | 100 to 1000 nM | Cn1cc(Nc2ncc3cnn(Cc4ccccc4OCC4CC4)c3n2)cn1 [Example 173, 1-(2-(Cyclopropylmethoxy)benzyl)-N-(1-methyl-1H-pyrazol-4-yl)-1H-pyrazolo[3,4-d]pyrimidin-6-amine]
≥ 10000 nM | 100 to 1000 nM | COCCOc1cccc(Cn2ncc3cnc(Nc4cnn(CC(F)F)c4)nc32)c1 [Example 176, N-(1-(2,2-Difluoroethyl)-1H-pyrazol-4-yl)-1-(3-(2-methoxyethoxy)benzyl)-1H-pyrazolo[3,4-d]pyrimidin-6-amine]
100 to 1000 nM | < 100 nM | Fc1ccccc1Cn1ncc2cnc(Nc3cnn(CCCN4CCC4)c3)nc21 [Example 177, N-(1-(3-(Azetidin-1-yl)propyl)-1H-pyrazol-4-yl)-1-(2-fluorobenzyl)-1H-pyrazolo[3,4-d]pyrimidin-6-amine]
1000 to 10000 nM | < 100 nM | Cn1cc(Nc2ncc3cnn(Cc4cccc(Cl)c4Cl)c3n2)cn1 [Example 178, 1-(2,3-Dichlorobenzyl)-N-(1-methyl-1H-pyrazol-4-yl)-1H-pyrazolo[3,4-d]pyrimidin-6-amine]
1000 to 10000 nM | < 100 nM | Cc1c(O)cccc1Cn1ncc2cnc(Nc3cnn(C)c3)nc21 [Example 179]
100 to 1000 nM | < 100 nM | Fc1ccccc1Cn1ncc2cnc(Nc3cnn(CCN4CCNCC4)c3)nc21 [Example 182, 1-(2-Fluorobenzyl)-N-(1-(2-(piperazin-1-yl)ethyl)-1H-pyrazol-4-yl)-1H-pyrazolo[3,4-d]pyrimidin-6-amine]
≥ 10000 nM | < 100 nM | COCCOc1cccc(Cn2ncc3cnc(Nc4cnn(C)c4)nc32)c1C [Example 185, 1-(3-(2-Methoxyethoxy)-2-methylbenzyl)-N-(1-methyl-1H-pyrazol-4-yl)-1H-pyrazolo[3,4-d]pyrimidin-6-amine]
